Measurements from patent publication US12642270B2, “Substituted thiophene carboxamides, thiophene carboxylic acids and derivatives thereof” (Bayer Aktiengesellschaft, priority 2019, dated 2026).

Assay: Log P by HPLC on reversed phase columns (EEC directive 79/831 Annex V.A8)
Assay type: physicochemical
Conditions: method [a]
Summary of the method: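 Values come from retention times calibrated against alkan-2-ones (3–16 carbons) by linear interpolation, using reversed-phase LC-UV per EEC directive 79/831 Annex V.A8. Acetonitrile gradient 10–95% with 0.1% formic acid [a], 0.001 M ammonium acetate [b] or 0.1% phosphoric acid [c]; several values within one method separated by "+".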

SMILES	LogP
COC(=O)C1(NC(=O)c2sc(Br)c(Br)c2F)CC(F)(F)C1 [1.0622]	3.37^[a]
CC(C)(C)OC(=O)C1(NC(=O)c2sc(Br)c(Br)c2F)CC(F)(F)C1 [1.0623]	4.46^[a]
NC(=O)CNC(=O)c1sc(Cl)c(Cl)c1Br [1.0626]	1.98^[a]
COC(=O)C(C)(C)NC(=O)c1sc(Br)c(C(F)F)c1Br [1.0627]	3.22^[a]
CCOC(=O)C(Cc1ccccc1)NC(=O)c1sc(Cl)c(Br)c1C#N (stereo not drawn) [1.0628]	4.00^[a]
N#CCNC(=O)c1sc(Cl)c(Br)c1C#N [1.0633]	2.07^[a]
CCOC(=O)CNC(=O)c1sc(Cl)c(Br)c1F [1.0634]	2.88^[a]
COC(=O)CNC(=O)c1sc(Cl)c(Br)c1F [1.0635]	2.49^[a]
COC(=O)C(C)(C)NC(=O)c1sc(Cl)c(Br)c1F [1.0637]	3.27^[a]
NC(=O)CNC(=O)c1sc(Br)c(Br)c1Cl [1.0638]	1.98^[a]
CCOC(=O)C(NC(=O)c1sc(Cl)c(Br)c1F)C(C)C (stereo not drawn) [1.0639]	4.40^[a]
CCOC(=O)C(Cc1ccccc1)NC(=O)c1sc(Cl)c(Br)c1F (stereo not drawn) [1.0640]	4.50^[a]
N#CCNC(=O)c1sc(Cl)c(Br)c1F [1.0645]	2.36^[a]
CCOC(=O)CNC(=O)c1sc(Br)c(C(F)F)c1Br [1.0646]	2.92^[a]
COC(=O)CNC(=O)c1sc(Br)c(C(F)F)c1Br [1.0647]	2.56^[a]
COC(=O)C1(NC(=O)c2sc(Br)c(C(F)F)c2Br)CC1 [1.0649]	2.70^[a]
COC(=O)C(NC(=O)c1sc(Cl)c(Br)c1F)C1CC1 (stereo not drawn) [1.0650]	3.41^[a]
N#CCNC(=O)c1sc(Br)c(C#N)c1Cl [1.0652]	2.03^[a]
COC(=O)C(C)(C)NC(=O)c1sc(Cl)c(C#N)c1Br [1.0657]	2.83^[a]

Second part, the compound after the results:

LogP	SMILES
3.69^[a]	COC(=O)C1(NC(=O)c2sc(Br)c(Br)c2Cl)CC(F)(F)C1 [1.0624]
3.62^[a]	CCCOC(=O)C1(NC(=O)c2sc(Cl)c(Br)c2C)CC1 [1.0625]
2.82^[a]	COC(=O)C1(NC(=O)c2sc(Cl)c(Br)c2C#N)CCC1 [1.0629]
3.20^[a]	CCOC(=O)C1(NC(=O)c2sc(Cl)c(Br)c2C#N)CCC1 [1.0630]
3.06^[a]	CCCOC(=O)C1(NC(=O)c2sc(Cl)c(Br)c2C#N)CC1 [1.0631]
3.21^[a]	N#Cc1c(C(=O)NC2(C(=O)OC3CCC3)CC2)sc(Cl)c1Br [1.0632]
3.10^[a]	CCOC(=O)C1(NC(=O)c2sc(Cl)c(Br)c2F)CC1 [1.0636]
3.29^[a]	COC(=O)C1(NC(=O)c2sc(Cl)c(Br)c2F)CCC1 [1.0641]
3.75^[a]	CCOC(=O)C1(NC(=O)c2sc(Cl)c(Br)c2F)CCC1 [1.0642]
3.52^[a]	CCCOC(=O)C1(NC(=O)c2sc(Cl)c(Br)c2F)CC1 [1.0643]
3.69^[a]	O=C(NC1(C(=O)OC2CCC2)CC1)c1sc(Cl)c(Br)c1F [1.0644]
3.05^[a]	CCOC(=O)C1(NC(=O)c2sc(Br)c(C(F)F)c2Br)CC1 [1.0648]
3.78^[a]	Cc1c(C(=O)NC2(C(=O)OC3CCC3)CC2)sc(Br)c1Cl [1.0651]
2.58^[a]	CCOC(=O)CNC(=O)c1sc(Cl)c(C#N)c1Br [1.0653]
2.21^[a]	COC(=O)CNC(=O)c1sc(Cl)c(C#N)c1Br [1.0654]
2.69^[a]	CCOC(=O)C1(NC(=O)c2sc(Cl)c(C#N)c2Br)CC1 [1.0655]
2.34^[a]	COC(=O)C1(NC(=O)c2sc(Cl)c(C#N)c2Br)CC1 [1.0656]

Same assay, conditions: method marked [a]

SMILES	LogP
CCOC(=O)C(Cc1ccccc1)NC(=O)c1sc(Cl)c(C#N)c1Br (stereo not drawn) [1.0660]	4.09^[a]
N#CCNC(=O)c1sc(Cl)c(C#N)c1Br [1.0663]	2.03^[a]
COC(=O)CNC(=O)c1sc(C#N)c(Cl)c1Br [1.0665]	2.25^[a]
COC(=O)C(C)(C)NC(=O)c1sc(C#N)c(Cl)c1Br [1.0668]	2.90^[a]
COC(=O)C(NC(=O)c1sc(C#N)c(Cl)c1Br)C1CC1 (stereo not drawn) [1.0670]	3.07^[a]
CCOC(=O)C(Cc1ccccc1)NC(=O)c1sc(C#N)c(Cl)c1Br (stereo not drawn) [1.0671]	4.14^[a]
CCOC(=O)C(Cc1ccccc1)NC(=O)c1sc(Br)c(C#N)c1Cl (stereo not drawn) [1.0675]	4.06^[a]
O=C(CNC(=O)c1sc(Br)c(Br)c1Cl)OC1CCOC1 (stereo not drawn) [1.0677]	2.84^[a]
O=C(CNC(=O)c1sc(Br)c(Br)c1F)OC1CCOC1 (stereo not drawn) [1.0678]	2.53^[a]
Cc1c(C(=O)NCC(=O)OC2CCOC2)sc(C#N)c1Br (stereo not drawn) [1.0679]	2.12^[a]
COC(=O)C(C)(C)NC(=O)c1sc(Br)c(C#N)c1Cl [1.0693]	2.84^[a]
CCOC(=O)CNC(=O)c1sc(F)c(Br)c1Br [1.0697]	3.01^[a]
COC(=O)CNC(=O)c1sc(F)c(Br)c1Br [1.0698]	2.60^[a]
O=C(NC1(C(=O)O)CC1)c1cc(Br)c(C(F)(F)F)s1 [1.0700]	2.44^[a]
CCOC(=O)C(C)(C)NC(=O)c1sc(Cl)c(Br)c1Br [1.0701]	4.30^[a]
COC(=O)C(C)(C)NC(=O)c1sc(F)c(Br)c1Br [1.0708]	3.38^[a]
CCOC(=O)C(NC(=O)c1sc(F)c(Br)c1Br)C(C)C (stereo not drawn) [1.0709]	4.48^[a]
COC(=O)C(NC(=O)c1sc(F)c(Br)c1Br)C1CC1 (stereo not drawn) [1.0710]	3.55^[a]
CCOC(=O)C(Cc1ccccc1)NC(=O)c1sc(F)c(Br)c1Br (stereo not drawn) [1.0711]	4.67^[a]
N#CCNC(=O)c1sc(F)c(Br)c1Br [1.0714]	2.39^[a]
CCOC(=O)CNC(=O)c1cc(Br)c(C(F)(F)F)s1 [1.0715]	3.00^[a]
COC(=O)CNC(=O)c1cc(Br)c(C(F)(F)F)s1 [1.0716]	2.65^[a]
COC(=O)C1(NC(=O)c2cc(Br)c(C(F)(F)F)s2)CC1 [1.0717]	2.87^[a]
COC(=O)C(C)(C)NC(=O)c1cc(Br)c(C(F)(F)F)s1 [1.0718]	3.23^[a]
CCOC(=O)C(NC(=O)c1cc(Br)c(C(F)(F)F)s1)C(C)C (stereo not drawn) [1.0719]	4.18^[a]
COC(=O)C(NC(=O)c1cc(Br)c(C(F)(F)F)s1)C1CC1 (stereo not drawn) [1.0720]	3.41^[a]
CCOC(=O)C(Cc1ccccc1)NC(=O)c1cc(Br)c(C(F)(F)F)s1 (stereo not drawn) [1.0721]	4.36^[a]
COC(=O)C1(NC(=O)c2cc(Br)c(C(F)(F)F)s2)CCC1 [1.0722]	3.33^[a]

Continued, values first:

LogP	SMILES
3.83^[a]	CCOC(=O)C(NC(=O)c1sc(Cl)c(C#N)c1Br)C(C)C (stereo not drawn) [1.0658]
3.00^[a]	COC(=O)C(NC(=O)c1sc(Cl)c(C#N)c1Br)C1CC1 (stereo not drawn) [1.0659]
2.87^[a]	COC(=O)C1(NC(=O)c2sc(Cl)c(C#N)c2Br)CCC1 [1.0661]
3.28^[a]	CCOC(=O)C1(NC(=O)c2sc(Cl)c(C#N)c2Br)CCC1 [1.0662]
2.64^[a]	CCOC(=O)CNC(=O)c1sc(C#N)c(Cl)c1Br [1.0664]
2.76^[a]	CCOC(=O)C1(NC(=O)c2sc(C#N)c(Cl)c2Br)CC1 [1.0666]
2.42^[a]	COC(=O)C1(NC(=O)c2sc(C#N)c(Cl)c2Br)CC1 [1.0667]
3.90^[a]	CCOC(=O)C(NC(=O)c1sc(C#N)c(Cl)c1Br)C(C)C (stereo not drawn) [1.0669]
2.96^[a]	COC(=O)C1(NC(=O)c2sc(C#N)c(Cl)c2Br)CCC1 [1.0672]
3.30^[a]	CCOC(=O)C1(NC(=O)c2sc(Br)c(C#N)c2Cl)CCC1 [1.0673]
2.89^[a]	COC(=O)C1(NC(=O)c2sc(Br)c(C#N)c2Cl)CCC1 [1.0674]
2.99^[a]	COC(=O)C(NC(=O)c1sc(Br)c(C#N)c1Cl)C1CC1 (stereo not drawn) [1.0676]
2.71^[a]	COC(=O)C1(NC(=O)c2sc(C#N)c(Br)c2C)CCC1 [1.0680]
2.17^[a]	COC(=O)CNC(=O)c1sc(Cl)c(Cl)c1C#N [1.0681]
2.33^[a]	COC(=O)C1(NC(=O)c2sc(Cl)c(Cl)c2C#N)CC1 [1.0682]
3.34^[a]	CCOC(=O)C1(NC(=O)c2sc(C#N)c(Cl)c2Br)CCC1 [1.0683]
2.73^[a]	COC(=O)C(C)(C)NC(=O)c1sc(Cl)c(Cl)c1C#N [1.0684]
3.98^[a]	CCOC(=O)C(Cc1ccccc1)NC(=O)c1sc(Cl)c(Cl)c1C#N (stereo not drawn) [1.0685]

LogP	SMILES
2.79^[a]	COC(=O)C1(NC(=O)c2sc(Cl)c(Cl)c2C#N)CCC1 [1.0686]
3.16^[a]	CCOC(=O)C1(NC(=O)c2sc(Cl)c(Cl)c2C#N)CCC1 [1.0687]
2.04^[a]	N#CCNC(=O)c1sc(Cl)c(Cl)c1C#N [1.0688]
2.57^[a]	CCOC(=O)CNC(=O)c1sc(Br)c(C#N)c1Cl [1.0689]
2.19^[a]	COC(=O)CNC(=O)c1sc(Br)c(C#N)c1Cl [1.0690]
2.71^[a]	CCOC(=O)C1(NC(=O)c2sc(Br)c(C#N)c2Cl)CC1 [1.0691]
2.37^[a]	COC(=O)C1(NC(=O)c2sc(Br)c(C#N)c2Cl)CC1 [1.0692]
3.83^[a]	CCOC(=O)C(NC(=O)c1sc(Br)c(C#N)c1Cl)C(C)C (stereo not drawn) [1.0694]
2.89^[a]	COC(=O)C(NC(=O)c1sc(Cl)c(Cl)c1C#N)C1CC1 (stereo not drawn) [1.0695]
2.15^[a]	O=C(NC1(C(=O)O)CC1)c1sc(Cl)c(Br)c1F [1.0702]
2.14^[a]	O=C(NC1(C(=O)O)CC1)c1sc(Br)c(Cl)c1F [1.0703]
3.62^[a]	CCCOC(=O)C1(NC(=O)c2sc(Br)c(Cl)c2C)CC1 [1.0704]
4.33^[a]	Cc1c(C(=O)NC2(C(=O)OC3CCC3)CCC2)sc(Br)c1Cl [1.0705]
3.17^[a]	CCOC(=O)C1(NC(=O)c2sc(F)c(Br)c2Br)CC1 [1.0706]
2.76^[a]	COC(=O)C1(NC(=O)c2sc(F)c(Br)c2Br)CC1 [1.0707]
3.41^[a]	COC(=O)C1(NC(=O)c2sc(F)c(Br)c2Br)CCC1 [1.0712]
3.88^[a]	CCOC(=O)C1(NC(=O)c2sc(F)c(Br)c2Br)CCC1 [1.0713]
